Experimental data from ChEMBL document CHEMBL1137166, “A unidirectional crosslinking strategy for HIV-1 protease dimerization inhibitors” (Bioorg Med Chem Lett, 2004).
Where a SMILES comes first, the peptide text is derived from it. [ ]: non-standard residue; d: D form. The star is where a group is joined. ξ: configuration not given here. Tyr(3-NO2) = N[C@@H](Cc1ccc(O)c([N+](=O)[O-])c1)C(=O)O; C16 diacid = O=C(O)CCCCCCCCCCCCCCC(=O)*; 1Nal = N[C@@H](Cc1cccc2ccccc12)C(=O)O; Cha = N[C@@H](CC1CCCCC1)C(=O)O; Ile(3ξ) = CCC(C)[C@H](N)C(=O)O; aThr = C[C@H](O)[C@H](N)C(=O)O; Fumaroyl = O=C(O)/C=C/C(=O)*; 12Ado = NCCCCCCCCCCCC(=O)O

How the values were obtained:
[1] = target: T1, Human immunodeficiency virus type 1 protease (Human immunodeficiency virus 1, UniProt Q72874); experiment: Inhibitory activity against Human immunodeficiency virus-1 protease
[2] = target: T1, Human immunodeficiency virus type 1 protease; experiment: Binding activity towards Human immunodeficiency virus-1 protease
[3] = target: Human immunodeficiency virus type 1 protease (Human immunodeficiency virus 1) (UniProt Q72874); experiment: Percent inhibition against Human immunodeficiency virus-1 protease at the concentration of 100 uM

Compound	IC50 [1] [µM]	Ki [2] [µM]	inhibition [3] [%]
CC(C)C[C@H](NC(=O)[C@@H](NC(=O)CCCCCCCCCCCCCCC(=O)N[C@@H](CC(N)=O)C(=O)N[C@@H](Cc1ccccc1)C(=O)O)[C@H](C)O)C(=O)N[C@@H](Cc1ccccc1)C(N)=O ({Phe-Asn-C16 diacid}-[aThr]-Leu-Phe-NH2)	5.4	3	–
CCC(C)[C@H](NC(=O)CCCCCCCCCCCNC(=O)[C@H](Cc1ccc(O)c([N+](=O)[O-])c1)NC(=O)[C@H](CC1CCCCC1)NC(=O)/C=C/C(=O)O)C(=O)N[C@@H](Cc1ccc(O)c([N+](=O)[O-])c1)C(N)=O (stereo partly drawn) (Fumaroyl-[Cha][Tyr(3-NO2)][12Ado][Ile(3ξ)][Tyr(3-NO2)]-NH2)	247	222	–
CC[C@H](C)[C@H](NC(=O)[C@H](CCC(N)=O)NC(=O)[C@@H]1CCCN1C(=O)CCCCCCCCCCCCCCC(=O)N[C@@H](CO)C(=O)N[C@H](C(=O)N[C@@H](CC(C)C)C(=O)N[C@@H](CC(N)=O)C(=O)N[C@@H](Cc1ccccc1)C(=O)O)[C@@H](C)O)C(=O)N[C@H](C(=O)N[C@@H](CC(C)C)C(=O)N[C@@H](Cc1c[nH]c2ccccc12)C(=O)O)[C@H](C)O	0.35	0.22	–
CCC(C)[C@H](NC(=O)CCCCCCCCCCCNC(=O)[C@H](Cc1ccc(O)c([N+](=O)[O-])c1)NC(=O)[C@H](CC1CCCCC1)NC(=O)/C=C/C(=O)O)C(=O)N[C@@H](Cc1ccccc1)C(N)=O (stereo partly drawn) (Fumaroyl-[Cha][Tyr(3-NO2)][12Ado][Ile(3ξ)]F-NH2)	327	199	–
CCC(C)[C@H](NC(=O)CCCCCCCCCCCNC(=O)[C@H](Cc1ccc(O)c([N+](=O)[O-])c1)NC(=O)[C@H](CC1CCCCC1)NC(=O)/C=C/C(=O)O)C(=O)N[C@@H](Cc1cccc2ccccc12)C(N)=O (stereo partly drawn) (Fumaroyl-[Cha][Tyr(3-NO2)][12Ado][Ile(3ξ)][1Nal]-NH2)	361	209	–
CCC(C)[C@H](NC(=O)CCCCCCCCCCCNC(=O)[C@H](NC(=O)[C@@H](Cc1ccccc1)NC(=O)/C=C/C(=O)O)C(N)=O)C(=O)N[C@@H](Cc1ccccc1)C(N)=O (stereo partly drawn)	9.7	–	–
CCC(C)[C@H](NC(=O)CCCCCCCCCCCNC(=O)[C@@H](NC(=O)[C@H](Cc1ccccc1)NC(=O)/C=C/C(=O)O)C(N)=O)C(=O)N[C@@H](Cc1ccccc1)C(N)=O (stereo partly drawn)	12	4.9	–
CCC(C)[C@H](NC(=O)CCCCCCCCCCCNC(=O)[C@H](Cc1ccc(O)c([N+](=O)[O-])c1)NC(=O)[C@H](CC1CCCCC1)NC(=O)/C=C/C(=O)O)C(N)=O (stereo partly drawn)	3.7	–	–
CCC(C)[C@H](NC(=O)CCCCCCCCCCCNC(=O)[C@H](NC(=O)[C@H](Cc1ccccc1)NC(=O)/C=C/C(=O)O)C(N)=O)C(=O)N[C@@H](Cc1ccccc1)C(N)=O (stereo partly drawn)	14.2	–	–
CCC(C)[C@H](NC(=O)CCCCCCCCCCCNC(=O)[C@@H](NC(=O)[C@H](Cc1ccccc1)NC(C)=O)C(N)=O)C(=O)N[C@@H](Cc1ccccc1)C(N)=O (stereo partly drawn)	–	–	15
CCC(C)[C@H](NC(=O)CCCCCCCCCCCNC(=O)[C@@H](NC(=O)[C@@H](Cc1ccccc1)NC(=O)/C=C/C(=O)O)C(N)=O)C(=O)N[C@@H](Cc1ccccc1)C(N)=O (stereo partly drawn)	18.8	–	–
CCC(C)[C@H](NC(=O)CCCCCCCCCCCNC(=O)[C@@H](NC(=O)[C@H](Cc1ccccc1)NC(=O)CCC(=O)O)C(N)=O)C(=O)N[C@@H](Cc1ccccc1)C(N)=O (stereo partly drawn)	–	–	< 50
CC(C)C[C@H](NC(=O)CCCCCCCCCCCCCCC(=O)N[C@@H](CC(N)=O)C(=O)N[C@@H](Cc1ccccc1)C(=O)O)C(=O)N[C@@H](Cc1ccccc1)C(N)=O (HELM PEPTIDE1{L.F.[am]}|PEPTIDE2{N.F}|CHEM1{[O=C(CCCCCCCCCCCCCCC(=O)[*:2])[*:1]]}$PEPTIDE1,CHEM1,1:R1-1:R1|PEPTIDE2,CHEM1,1:R1-1:R2$$$V2.0)	11	–	–
NC(=O)[C@H](Cc1ccc(O)c([N+](=O)[O-])c1)NC(=O)[C@H](CC1CCCCC1)NC(=O)/C=C/C(=O)O	–	–	< 20
CCC(C)[C@H](NC(=O)CCCCCCCCCCCNC(=O)[C@@H](NC(=O)[C@@H](N)Cc1ccccc1)C(N)=O)C(=O)N[C@@H](Cc1ccccc1)C(N)=O (stereo partly drawn)	–	–	35
NC(=O)CCCCCCCCCCCNC(=O)[C@H](Cc1ccc(O)c([N+](=O)[O-])c1)NC(=O)[C@H](CC1CCCCC1)NC(=O)/C=C/C(=O)O	20	–	–
CCC(C)[C@H](NC(=O)CCCCCCCCCCCNC(=O)CNC(=O)[C@@H](CC(N)=O)NC(=O)[C@H](Cc1ccccc1)NC(=O)/C=C/C(=O)O)C(=O)N[C@@H](Cc1ccccc1)C(N)=O (stereo partly drawn)	16.8	–	–
